Consider four substances from patent US20060211651A1, “Persulfated oligosaccharide acting on selectins and chemokine” (Taisho Pharmaceutical Co., Ltd., priority 2002, published 2006).

The target in experiment [1] is secondary lymphoid tissue chemokine. Briefly: BIAcore surface plasmon resonance, immobilized glycosaminoglycan vs SLC. The experiment is classed as binding. The following applies: for Kd / koff / kon: GAG immobilized, 25° C. The protocol:
(§1) Affinity kinetics of the interaction between various CS/DS chains and each of L-selectin, P-selectin, CD44 and chemokine were examined by surface plasmon resonance using BIAcore™ biosensor [manufactured by BIAcore AB].
(§2) All experiments were performed at 25° C. At stages of washing and dissociation, buffer C (20 mM HEPES-NaOH, 0.15M NaCl, 1 mM CaCl2, 1 mM MgCl2, pH6.8) was used as a running buffer.
(§3) First, about 1.8 to 2.0 kiloresonance unit (1 kiloresonance unit=1 ng/mm^2) of streptavidin were covalently immobilized onto B1 sensor chip via a primary amine group using an amine coupling kit [manufactured by Amercham-Bioscience] according to the instruction provided by the manufacturer. The remaining activated groups were blocked with 150 μl of 1M ethanolamine-HCl (pH8.5). Then, each glycosaminoglycan which had been biotinylated at a reducing end was injected to a sensor tip surface by using EZ-link™ biotin-LC-hydrazide [manufactured by Pierce] so as to obtain about 150 resonance unit of an immobilization level, according to the method of Sadir et al. [J. Biol. Chem., 276, 8288-8296 (2001); all teachings of which are hereby incorporated by reference].
(§4) Binding assay was performed by injecting continuously each of various concentrations of secondary lymphoid tissue chemokine, γ-interferon inducible protein-10, stromal cell-derived factor-1β, monomeric L-selectin [manufactured by Genzyme-Techne], monomeric P-selectin [manufactured by Genzyme-Techne] and monomeric CD44, to a glycosaminoglycan-coupled sensor tip at a flow rate of 30 μl/min for 0 to 90 seconds, and then injecting a running buffer thereto. A response in resonance unit was recorded as a function of a time.
(§5) A sensor tip surface was regenerated with 300 μl of 1 M NaCl when chemokine or CD44 was used, or regenerated with 300 μl of 1 M NaCl, and additional 100 μl of 50 mM EDTA (pH8.0), when selectin was used. As a result of regeneration of a sensor tip surface, a remarkable change in a baseline was not observed.
(§6) An affinity kinetic parameter was determined by BIAevaluation 3.0 software [manufactured by Pharmacia Biosensor] using a single site binding model. […] In FIG. 6 and Table 3, SLC denotes secondary lymphoid tissue chemokin, IP-10 denotes γ-interferon inducible protein-10, SDF-1β denotes stromal cell-derived factor-1β, CS E denotes chondroitin sulfate E, and CS A denotes chondroitin sulfate A. In addition, in Table 3, Kd value for the interaction between monomeric CD44 and chondroitin sulfate E is a value calculated from a binding amount at equilibrium, and Kd value of the interaction between CD44 and hyaluronic acid is a value calculated using CD44-Ig.
For orientation: Surface plasmon resonance follows binding to a sensor surface in real time, without labels.

Experiment [2] has as its target T1, stromal cell-derived factor-1β (Homo sapiens, UniProt P48061).
T1 construct: purchased Pepro Tech
Briefly: ELISA, biotinylated versican binding to SDF-1β in presence of glycosaminoglycan. Particulars: 100 μg/ml glycosaminoglycan; FIG. 5. The protocol:
(§7) A well of a 96 well flat bottom microtiter plate was coated with BSA (5 μg/ml), anti-versican monoclonal antibody 2B1 (5 μg/ml), CD44-Ig (7 μg/ml), L-selectin-Ig (3 μg/ml), P-selectin-Ig (3 μg/ml) or chemokine (1 μg/ml), and then blocked with a phosphate buffered physiological saline containing 3% by weight of BSA. As the above chemokine, secondary lymphoid tissue chemokine, γ-interferon inducible protein-10, platelet factor 4, stromal cell-derived factor-1β [manufactured by Pepro Tech] and stromal cell-derived factor-1α [manufactured by Pepro Tech] were used.
(§8) Thereafter, the plate was washed with the buffer A, and enzyme-linked immunosorbent assay was performed in the same manner as that of the previous report [Kawashima, H. et al., J. Biol. Chem., 275, 35448-35456 (2000)]. Binding was determined by measuring absorbance at 620 nm using alkaline phosphatase-conjugated streptavidin and Blue Phos™ substrate. In FIG. 5, expression of an abscissa axis is the same as that of FIG. 4.

Another experiment concerns P-selectin-Ig. Briefly: ELISA, biotinylated versican binding to P-selectin-Ig in presence of glycosaminoglycan. The following applies: 100 μg/ml glycosaminoglycan; FIG. 5. How it is done:
as §7, §8
In general terms: ELISA stands for enzyme-linked immunosorbent assay.

In a further experiment the test system is CD44-Ig. The experiment can be described thus: ELISA, biotinylated versican binding to CD44-Ig in presence of glycosaminoglycan. Also on record: species or system human. Particulars: 100 μg/ml glycosaminoglycan; FIG. 5. The protocol: as §7, §8
Chain of CD44-Ig (P16070 21-178 limits assumed): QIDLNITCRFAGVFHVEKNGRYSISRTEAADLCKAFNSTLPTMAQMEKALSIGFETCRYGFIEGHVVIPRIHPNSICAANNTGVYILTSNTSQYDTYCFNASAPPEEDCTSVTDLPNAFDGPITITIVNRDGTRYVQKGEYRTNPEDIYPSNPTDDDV
In experiment [3] the test system is secondary lymphoid tissue chemokine. The experiment can be described thus: Ca2+ mobilization in L1.2/CCR7 cells stimulated with SLC. The following applies: glycosaminoglycan 100 μg/ml; L1.2/CCR7 cells loaded with Fura-2; FIG. 8. The experiment is classed as cell-based. How it is done: i) applying Fura-2 to stimulate to L1.2/CCR7 cell (1×10^6 cells/ml) with secondary lymphoid tissue chemokine in the presence or absence of the therapeutic or prophylactic agent (100 μg/ml) of the present invention, and
ii) measuring a fluorescent rate to monitor an intracellular calcium concentration according to the description of Hirose, J. et al. [J. Biol. Chem., 276, 5228-5234 (2001); all teachings of which are hereby incorporated by reference].
L1.2/CCR7 cells (1×10^6 cells/ml) were loaded with Fura-2, and then stimulated with secondary lymphoid tissue chemokine (“SLC” in FIG. 8) or C-terminal truncated secondary lymphoid tissue chemokine (“SLC-T” in FIG. 8), in the presence or absence of glycosaminoglycan (100 μg/ml). The intracellular calcium concentration was monitored by measuring a fluorescent rate in the same manner as described in the previous report [Hirose, J. et al., J. Biol. Chem., 276, 5228-5234 (2001)]. Chondroitin sulfate E (“CS E” in FIG. 8) and chondoroitin sulfate A (“CS A” in FIG. 8) were used as the glycosaminoglycan. In FIG. 8, an arrowhead indicates a time point at which stimulation was given.
(In general: Calcium flux is commonly read through the fluorescence of an indicator in the cells.)

In experiment [4] the target is T2, L-selectin-Ig (Homo sapiens, UniProt P14151).
T2 construct: purchased R & D Systems Inc
T2 sequence (P14151 with tags, fused parts or gaps limits assumed): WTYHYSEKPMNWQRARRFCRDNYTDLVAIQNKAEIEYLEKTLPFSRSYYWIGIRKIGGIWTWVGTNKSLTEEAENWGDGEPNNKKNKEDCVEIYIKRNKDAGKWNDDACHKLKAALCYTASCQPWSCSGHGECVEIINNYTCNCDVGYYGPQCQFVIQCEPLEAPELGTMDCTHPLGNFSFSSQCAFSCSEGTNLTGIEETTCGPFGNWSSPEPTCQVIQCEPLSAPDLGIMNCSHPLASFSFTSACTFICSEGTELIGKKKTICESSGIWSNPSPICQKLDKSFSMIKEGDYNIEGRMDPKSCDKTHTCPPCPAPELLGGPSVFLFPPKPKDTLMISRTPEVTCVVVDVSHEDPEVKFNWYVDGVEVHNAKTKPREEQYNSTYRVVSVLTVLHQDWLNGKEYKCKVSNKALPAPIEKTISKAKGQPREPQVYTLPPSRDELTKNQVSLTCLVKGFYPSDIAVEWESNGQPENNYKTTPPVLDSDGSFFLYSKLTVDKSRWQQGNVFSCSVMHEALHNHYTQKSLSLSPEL
The experiment can be described thus: ELISA, biotinylated versican binding to L-selectin-Ig in presence of glycosaminoglycan. Particulars: 100 μg/ml glycosaminoglycan; FIG. 5. How it is done:
as §7, §8

In experiment [5] the target is T3, γ-interferon inducible protein-10 (Homo sapiens, UniProt P02778). Briefly: ELISA, biotinylated versican binding to IP-10 in presence of glycosaminoglycan. The following applies: 100 μg/ml glycosaminoglycan; FIG. 5. The protocol: as §7, §8
T3 sequence (P02778 22-98): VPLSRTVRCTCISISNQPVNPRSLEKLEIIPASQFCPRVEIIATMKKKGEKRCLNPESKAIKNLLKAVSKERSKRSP
The target in experiment [6] is T3, γ-interferon inducible protein-10. The experiment can be described thus: BIAcore surface plasmon resonance, immobilized glycosaminoglycan vs IP-10. Particulars: for Kd / koff / kon: GAG immobilized, 25° C. The experiment is classed as binding. How it is done: as §1, §2, §3, §4, §5, §6
Experiment [7] concerns the target T2, L-selectin-Ig. The experiment can be described thus: Binding inhibition assay (ELISA), biotinylated versican to L-selectin-Ig, various concentrations. Particulars: dose-dependent, FIG. 2 panel A. How it is done: Inhibition assay of binding between versican and each of L-selectin, P-selectin and CD44 was performed as follows. First, each well on a 96 well flat bottom microtiter plate (Coster EIA/RIA plate No. 3690) was coated with L-selectin-Ig (3 μg/ml), P-selectin-Ig (4 μg/ml) or CD44-Ig (0.25 μg/ml) by a conventional procedure. […] The plate was incubated at room temperature for 2 hours. Thereafter, the plate was washed with the buffer A, and enzyme-linked immunosorbent assay was performed in the same manner as described in Kawashima, H. et al. [J. Biol. Chem., 275, 35448-35456 (2000)]. Binding was determined by measuring absorbance at 620 nm using alkaline phosphatase-conjugated streptavidin and Blue Phos™ substrate.

T1 sequence (P48061 22-93): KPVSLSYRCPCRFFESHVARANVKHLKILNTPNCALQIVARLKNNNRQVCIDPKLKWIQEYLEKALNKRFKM

For orientation: Kd means the concentration at which binding is half-saturated. By koff is commonly meant the rate constant with which the complex falls apart. The low end stands for a long-lived complex, the high end for a short-lived complex. As usually defined, the kon is a measure of how fast the partners come together. A lower kon goes with slower complex formation. As for chondroitin polysulfate [CPS], in experiment [1], binding was characterised by a dissociation constant (Kd) of 101 nM, the koff was 0.00244 s⁻¹ and the on-rate constant (kon) is 24200 M⁻¹ s⁻¹. For the same substance, the “inhibition of binding between biotinylated versican and stromal cell-derived factor-1β” value in [2] was “inhibited”. The “inhibition of binding between biotinylated versican and P-selectin” value with P-selectin-Ig was “inhibited”. Besides, the “inhibition of binding between biotinylated versican and CD44-Ig” value in the experiment with CD44-Ig is “not remarkable”. Besides, the “Ca^2+ mobilization by secondary lymphoid tissue chemokine pre-incubated with glycosaminoglycan” value (from here on “Ca^2+ mobilization”) in [3] is “did not induce”. In addition, on L-selectin-Ig [4], the “inhibition of binding between biotinylated versican and L-selectin” value is listed as “inhibited”. The “inhibition of binding between biotinylated versican and γ-interferon inducible protein-10” value in experiment [5] was “inhibited”. In [6], this substance returned a Kd of 73.2 nM, a dissociation rate constant (koff) of 0.0023 s⁻¹ and a kon of 31500 M⁻¹ s⁻¹. The “inhibition of binding between biotinylated versican and L-selectin-Ig” value at L-selectin-Ig [7] is “inhibited”.

For chondroitin sulfate A [CS A], the “interaction with immobilized glycosaminoglycan (sensorgram)” value (from here on “interaction”) in experiment [1] and in [6] was “did not interact” throughout. Besides, in the experiment with CD44-Ig, the “inhibition of binding between biotinylated versican and CD44-Ig” value is “inhibited”. For the same substance, the “Ca^2+ mobilization” value in experiment [3] is given as “remarkably induced”. Further, the “inhibition of binding between biotinylated versican and L-selectin-Ig” value on L-selectin-Ig [7] is given as “not inhibited”.

As to chondroitin sulfate E [CS E], in experiment [1], the “interaction” value is given as “bound”; the affinity, expressed as Kd, was 85.8 nM; the koff turned out to be 0.00356 s⁻¹; the on-rate (kon) worked out at 41500 M⁻¹ s⁻¹. In addition, the “inhibition of binding between biotinylated versican and stromal cell-derived factor-1β” value in experiment [2] is “inhibited”. The “inhibition of binding between biotinylated versican and P-selectin” value with P-selectin-Ig is listed as “inhibited”. Also, the “inhibition of binding between biotinylated versican and CD44-Ig” value with CD44-Ig is “inhibited”. In addition, the “Ca^2+ mobilization” value in experiment [3] is given as “did not induce”. At L-selectin-Ig [4], the “inhibition of binding between biotinylated versican and L-selectin” value is “inhibited”. Moreover, the “inhibition of binding between biotinylated versican and γ-interferon inducible protein-10” value in [5] is on record as “inhibited”. Also, in experiment [6], the “interaction” value is reported as “bound”, binding was put at a Kd of 130 nM, the koff was found to be 0.00211 s⁻¹ and the on-rate (kon) was 16200 M⁻¹ s⁻¹. Besides, at L-selectin-Ig [7], the “inhibition of binding between biotinylated versican and L-selectin-Ig” value is reported as “inhibited”.

In experiment [1], dermatan polysulfate [DPS] returned a Kd of 32.2 nM, an off-rate (koff) of 0.000278 s⁻¹ and an association rate constant (kon) of 8640 M⁻¹ s⁻¹. For the same substance, the “inhibition of binding between biotinylated versican and stromal cell-derived factor-1β” value in [2] is recorded as “inhibited”. Also, in the experiment with P-selectin-Ig, the “inhibition of binding between biotinylated versican and P-selectin” value is “inhibited”. Further, the “inhibition of binding between biotinylated versican and CD44-Ig” value with CD44-Ig is given as “inhibited”. In addition, the “Ca^2+ mobilization” value in experiment [3] is “did not induce”. The “inhibition of binding between biotinylated versican and L-selectin” value on L-selectin-Ig [4] is recorded as “inhibited”. Besides, the “inhibition of binding between biotinylated versican and γ-interferon inducible protein-10” value in experiment [5] is on record as “inhibited”. In [6], the equilibrium dissociation constant (Kd) was determined as 34.9 nM, the koff was found to be 0.000923 s⁻¹ and the on-rate (kon) was determined as 26400 M⁻¹ s⁻¹. For the same substance, the “inhibition of binding between biotinylated versican and L-selectin-Ig” value on L-selectin-Ig [7] is “inhibited”.
